Test results as given in patent publication US20060009493A1, “Indolinone hydrazides as c-Met inhibitors” (Sugen, Inc., priority 2003, published 2006).

molecular target: T1, GST fusion protein containing the Met kinase domain (Homo sapiens, UniProt P08581); experiment: MET Transphosphorylation Assay (ELISA, poly(Glu,Tyr) 4:1 substrate); assay type: biochemical; details: met transphosphorylation of poly(glutamic acid:tyrosine 4:1) substrate; two values in a cell separated by '/'
T1 construct: Purified GST fusion protein containing the Met kinase domain, Sugen, Inc
T1 sequence (P08581 1078-1345 limits assumed): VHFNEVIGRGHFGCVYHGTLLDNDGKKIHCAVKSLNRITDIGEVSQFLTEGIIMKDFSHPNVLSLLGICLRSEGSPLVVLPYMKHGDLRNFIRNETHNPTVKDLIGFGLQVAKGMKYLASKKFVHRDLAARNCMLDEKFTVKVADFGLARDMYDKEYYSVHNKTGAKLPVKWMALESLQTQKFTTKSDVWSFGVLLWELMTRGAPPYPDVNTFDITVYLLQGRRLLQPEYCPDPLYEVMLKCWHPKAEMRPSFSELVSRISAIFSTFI
Outline: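 Poly(Glu-Tyr)-coated wells received the GST-Met kinase domain (10 ng/well) with compound in DMSO for 15 minutes. The reaction was started with ATP/MnCl2 in HEPES pH 7.5 buffer with vanadate, run 5 minutes, and stopped with EDTA. Phosphotyrosine was detected by anti-pTyr antibody, HRP secondary and ABTS/H2O2.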

Row | SMILES | IC50 [nM]
1 | O=C(Cc1cnc(=O)[nH]c1)N/N=C1\C(=O)Nc2c(Cl)ccc(Cl)c21 [II-96, (2-Oxo-1,2-dihydro-pyrimidin-5-yl)-acetic acid [(3Z)-4,7-dichloro-2-oxo-1,2-dihydro-indol-3-ylidene]-hydrazide] | 3080
2 | O=C(Cn1ccc(=O)[nH]c1=O)N/N=C1\C(=O)Nc2c(Cl)ccc(Cl)c21 [II-72, (2,4-Dioxo-3,4-dihydro-2H-pyrimidin-1-yl)-acetic acid [(3Z)-4,7-dichloro-2-oxo-1,2-dihydro-indol-3-ylidene]-hydrazide] | > 20000
3 | COc1ccc(CC(=O)N/N=C2\C(=O)Nc3c(C)ccc(C)c32)cn1 [II-45, (6-Methoxy-pyridin-3-yl)-acetic acid [(3Z)-4,7-dimethyl-2-oxo-1,2-dihydro-indol-3-ylidene]-hydrazide] | 110
4 | O=C(Cc1ccc(O)cc1)N/N=C1\C(=O)Nc2cccc(-c3cccc(F)c3)c21 [Example I-14, (4-Hydroxy-phenyl)-acetic acid [(3Z)-4-(3-fluoro-phenyl)-2-oxo-1,2-dihydro-indol-3-ylidene]-hydrazide] | 500
5 | O=C(Cc1ccc(O)cc1)N/N=C1\C(=O)Nc2cccc(-c3ccc(F)cc3)c21 [Example I-15, (4-Hydroxy-phenyl)-acetic acid [(3Z)-4-(4-fluoro-phenyl)-2-oxo-1,2-dihydro-indol-3-ylidene]-hydrazide] | 890
6 | O=C(Cc1cc(O)[nH]n1)N/N=C1\C(=O)Nc2c(Cl)ccc(Cl)c21 [II-87, (5-Hydroxy-1H-pyrazol-3-yl)-acetic acid [(3Z)-4,7-dichloro-2-oxo-1,2-dihydro-indol-3-ylidene]-hydrazide] | 630
7 | COc1cccc2c1NC(=O)/C2=N\NC(=O)Cc1ccc(O)cc1 [II-60, (4-Hydroxy-phenyl)-acetic acid [(3Z)-7-methoxy-2-oxo-1,2-dihydro-indol-3-ylidene]-hydrazide] | 65
8 | O=C(CCc1ccc(O)cc1)N/N=C1\C(=O)Nc2ccccc21 [II-25, 3-(4-Hydroxy-phenyl)-propionic acid [(3Z)-2-oxo-1,2-dihydro-indol-3-ylidene]-hydrazide] | 6350
9 | O=C(Cc1cnc(=O)[nH]c1)N/N=C1\C(=O)Nc2ccccc21 [II-89, (2-Oxo-1,2-dihydro-pyrimidin-5-yl)-acetic acid [(3Z)-2-oxo-1,2-dihydro-indol-3-ylidene]-hydrazide] | 12600
10 | O=C(Cc1ccc(O)cc1)N/N=C1\C(=O)Nc2ccc(Br)c(-c3cccc(F)c3)c21 [Example I-13, (4-Hydroxy-phenyl)-acetic acid [(3Z)-5-bromo-4-(3-fluoro-phenyl)-2-oxo-1,2-dihydro-indol-3-ylidene]-hydrazide] | 1060
11 | O=C(Cc1ccc(F)cc1)N/N=C1\C(=O)Nc2ccc(C(=O)N3CCC(NC4CC4)CC3)c(Cl)c21 [Example I-20, (4-Fluoro-phenyl)-acetic acid [(3Z)-4-chloro-5-(4-cyclopropylamino-piperidine-1-carbonyl)-2-oxo-1,2-dihydro-indol-3-ylidene]-hydrazide] | 430
12 | Cn1cc(CC(=O)N/N=C2\C(=O)Nc3ccc(C(=O)N4CCC(NC5CC5)CC4)c(Cl)c32)ccc1=O [Example I-35, (1-Methyl-6-oxo-1,6-dihydro-pyridin-3-yl)-acetic acid [(3Z)-4-chloro-5-(4-cyclopropylamino-piperidine-1-carbonyl)-2-oxo-1,2-dihydro-indol-3-ylidene]-hydrazide] | 1230
13 | COc1ccc(CC(=O)N/N=C2\C(=O)Nc3c(Cl)ccc(Cl)c32)cc1C#N [II-106, (3-Cyano-4-methoxy-phenyl)-acetic acid [(3Z)-4,7-dichloro-2-oxo-1,2-dihydro-indol-3-ylidene]-hydrazide] | > 20000
14 | CC(C(=O)N/N=C1\C(=O)Nc2c(Cl)ccc(Cl)c21)c1ccc(O)c(Br)c1 (stereo not drawn) [II-104, 2-(3-Bromo-4-hydroxy-phenyl)-propionic acid [(3Z)-4,7-dichloro-2-oxo-1,2-dihydro-indol-3-ylidene]-hydrazide] | 790
15 | COc1ccc(C(C)C(=O)N/N=C2\C(=O)Nc3ccccc32)cc1 (stereo not drawn) [II-17] | 230
